Experimental data reported in US7713969B2, “Compositions and methods for treatment of cancer” (ArQule, Inc., priority 2005, dated 2010).

What was measured:
HT29 = assay: Cell viability MTS assay; format: cell-based, human; details: Homo sapiens, HT-29, 72 hours with compound
Method in brief: (§1)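 72 h compound exposure, 0.33% DMSO final; MTS 2 gm/L + PMS 7.67 mg/L final, 4 h; SDS 1.4% final; A490. IC50 vs DMSO-only wells, non-linear regression.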

K562 = assay: Cell viability MTS assay; format: cell-based, human; details: Homo sapiens, K562, 72 hours with compound
Method in brief: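 Cells are seeded and incubated 16-24 hours, then given compound for 72 hours at 0.33% final DMSO. MTS and PMS are added for 4 hours, followed by SDS to 1.4%, and absorbance is read at 490 nm. IC50 marks a 50% drop in viable cells relative to DMSO-only wells.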

SK-MEL-28 = assay: Cell viability MTS assay; format: cell-based, human; details: Homo sapiens, SK-MEL-28, 72 hours with compound
Method in brief: as §1

A549 = assay: Cell viability MTS assay; format: cell-based, human; details: Homo sapiens, A549, 72 hours with compound
Method in brief: as §1

MCF7 = assay: Cell viability MTS assay; format: cell-based, human; details: Homo sapiens, MCF7, 72 hours with compound
Method in brief: as §1

DU-145 = assay: Cell viability MTS assay; format: cell-based, human; details: Homo sapiens, DU-145, 72 hours with compound
Method in brief: as §1

MDA-MB-231 = assay: Cell viability MTS assay; format: cell-based, human; details: Homo sapiens, MDA-MB-231, 72 hours with compound
Method in brief: as §1

SKOV-3 = assay: Cell viability MTS assay; format: cell-based, human; details: Homo sapiens, SK-OV-3, 72 hours with compound
Method in brief: as §1

PC-3 = assay: Cell viability MTS assay; format: cell-based, human; details: Homo sapiens, PC-3, 72 hours with compound
Method in brief: as §1

HCT-116 = assay: Cell viability MTS assay; format: cell-based, human; details: Homo sapiens, HCT-116, 72 hours with compound
Method in brief: as §1

[1] = test system: MDA-MB-231 cells or Paca-2 cells; assay: Cell survival in six-well plates, Wright-Giemsa stain (Example 77); format: cell-based; details: Homo sapiens; 0.1-2 μM, cultures observed 10-15 days; cell line of the IC50 not stated
Experimental: Exponentially growing MDA-MB-231 cells or Paca-2 cells were seeded at 1,000 cells per well in six-well plates and allowed to attach for 24 hours. MDA-MB-231 and Paca-2 cells were cultured in DMEM supplemented with 10% (v/v) fetal calf serum (FCS) and 5 ml Penicillin/Streptomycin at 37° C. in 5% CO2. MDA-MB-231 and Paca-2 were established estrogen receptor negative human breast cancer and pancreatic carcinoma cell lines, respectively. (±)-cis-3-(5,6-dihydro-4H-pyrrolo[3,2,1-ij]quinolin-1yl)-4(1H-indol-3-yl)pyrrolidine-2,5-dione or (±)-trans-3-(5,6-dihydro-4H-pyrrolo[3,2,1-ij]quinolin-1-yl)-4(1H-indol-3-yl)pyrrolidine-2,5-dione were each dissolved at a concentration of 10 mM in DMSO, and separately added to cells at a concentration of 0.1, 0.25, 0.5, 1 or 2 μM. Control plates received DMSO alone, at the same percentage of total culture volume as that administered in conjunction with the highest concentration of drug. Cell cultures were observed daily for 10-15 days, then fixed and stained with modified Wright-Giemsa stain (Sigma). Treatment with (±)-cis-3-(5,6-dihydro-4H-pyrrolo [3,2,1-ij]quinolin-1yl)-4(1H-indol-3-yl)pyrrolidine-2,5-dione or (±)-trans-3-(5,6-dihydro-4H-pyrrolo[3,2,1-ij]quinolin-1-yl)-4(1H-indol-3-yl)pyrrolidine-2,5-dione results in cell death of MDA-MB-231 cells or Paca-2 cells. See, e.g., FIG. 2.

NCI-H82 = assay: Cell viability MTS assay; format: cell-based, human; details: Homo sapiens, NCI-H82, 72 hours with compound
Method in brief: as §1

NCI-H446 = assay: Cell viability MTS assay; format: cell-based, human; details: Homo sapiens, NCI-H446, 72 hours with compound
Method in brief: as §1

NCI-H69 = assay: Cell viability MTS assay; format: cell-based, human; details: Homo sapiens, NCI-H69, 72 hours with compound
Method in brief: as §1

[2] = test system: MDA-MB-231 human breast cancer xenograft; assay: Breast cancer xenograft model (Example 86); format: in vivo, mice
Experimental: MDA-MB-231 human breast cancer cells were inoculated subcutaneously into female athymic nude mice (8.0×10^6 cells/mouse) and allowed to form palpable tumors. Once the tumors reached approximately 60 mm^3, the animals were treated orally with (−)-trans-3-(5,6-dihydro-4H-pyrrolo[3,2,1-ij]quinolin-1-yl)-4(1H-indol-3-yl)pyrrolidine-2,5-dione at 200 mg/kg or vehicle control daily (5 consecutive days, followed by a 2 day dosing holiday). (−)-trans-3-(5,6-dihydro-4H-pyrrolo[3,2,1-ij]quinolin-1-yl)-4(1H-indol-3-yl)pyrrolidine-2,5-dione was formulated in PEG 400:20% Vitamin E TPGS (60:40). The animals received a total of 20 doses of (−)-trans-3-(5,6-dihydro-4H-pyrrolo[3,2,1-ij]quinolin-1-yl)-4(1H-indol-3-yl)pyrrolidine-2,5-dione or vehicle control. Tumors were measured throughout treatment and the post-treatment observation period. Each point represents the mean±SEM of ten tumors. (See FIG. 10)

IC50 (HT29) [µM] | IC50 (K562) [µM] | IC50 (SK-MEL-28) [µM] | IC50 (A549) [µM] | IC50 (MCF7) [µM] | IC50 (DU-145) [µM] | IC50 (MDA-MB-231) [µM] | IC50 (SKOV-3) [µM] | IC50 (PC-3) [µM] | IC50 (HCT-116) [µM] | IC50 (NCI-H82) [µM] | IC50 (NCI-H446) [µM] | IC50 (NCI-H69) [µM] | Compound | IC50 [1] [µM] | change in body weight ([2]; 200 mg/kg oral administration) | Tumor growth inhibition ([2]; 200 mg/kg orally, daily 5 days on/2 off, 20 doses) [%]
4.55 | 0.424 | 13 | 10.7 | > 100 | 9.61 | 3.34 | 0.939 | 4.95 | 1.82 |  |  |  | O=C1NC(=O)[C@@H](c2cn3c4c(cccc24)CCC3)[C@@H]1c1c[nH]c2ccccc12 (racemic) [(±)-Trans-3-(5,6-dihydro-4H-pyrrolo[3,2,1-ij]quinolin-1-yl)-4(1H-indol-3-yl)pyrrolidine-2,5-dione] | 0.5 |  | 
1.95 | 0.294 | 8.68 | 5.8 | > 100 | 4 | 2.19 | 0.444 | 1.28 | 0.812 | 0.828 | 0.581 | 1.04 | O=C1NC(=O)C(c2cn3c4c(cccc24)CCC3)C1c1c[nH]c2ccccc12 (single isomer, unassigned; (-)) |  | no significant change in body weight | 79
